From ChEMBL document CHEMBL1909046, “DrugMatrix in vitro pharmacology data”

Experiments:
[1] = molecular target: Beta-2 adrenergic receptor (Homo sapiens, UniProt P07550); assay: DRUGMATRIX: Adrenergic beta2 radioligand binding (ligand: [3H] CGP-12177); assay type: cell membranes, Membrane; conditions: cho; Not Active = under 50% inhibition at 10 µM
Insulin receptor = Insulin receptor (Rattus norvegicus, UniProt P15127); assay type: cell membranes, Wistar, Liver, Membrane; further: in other assays of this panel Not Active means under 50% inhibition at 10 µM
Melanocortin receptor 3 = Melanocortin receptor 3 (Homo sapiens, UniProt P41968); assay type: cell membranes, Membrane; conditions: hek293; further: in other assays of this panel Not Active means under 50% inhibition at 10 µM
[2] = molecular target: T1, Angiotensin-converting enzyme (Oryctolagus cuniculus, UniProt P12822); assay: biochemical; assay type: tissue-based, Lung;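 further: enzymatic inhibition of angiotensin-converting enzyme measured with FAPGG as the substrate; in other assays of this panel Not Active means under 50% inhibition at 10 µM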
T1 sequence (P12822 whole entry): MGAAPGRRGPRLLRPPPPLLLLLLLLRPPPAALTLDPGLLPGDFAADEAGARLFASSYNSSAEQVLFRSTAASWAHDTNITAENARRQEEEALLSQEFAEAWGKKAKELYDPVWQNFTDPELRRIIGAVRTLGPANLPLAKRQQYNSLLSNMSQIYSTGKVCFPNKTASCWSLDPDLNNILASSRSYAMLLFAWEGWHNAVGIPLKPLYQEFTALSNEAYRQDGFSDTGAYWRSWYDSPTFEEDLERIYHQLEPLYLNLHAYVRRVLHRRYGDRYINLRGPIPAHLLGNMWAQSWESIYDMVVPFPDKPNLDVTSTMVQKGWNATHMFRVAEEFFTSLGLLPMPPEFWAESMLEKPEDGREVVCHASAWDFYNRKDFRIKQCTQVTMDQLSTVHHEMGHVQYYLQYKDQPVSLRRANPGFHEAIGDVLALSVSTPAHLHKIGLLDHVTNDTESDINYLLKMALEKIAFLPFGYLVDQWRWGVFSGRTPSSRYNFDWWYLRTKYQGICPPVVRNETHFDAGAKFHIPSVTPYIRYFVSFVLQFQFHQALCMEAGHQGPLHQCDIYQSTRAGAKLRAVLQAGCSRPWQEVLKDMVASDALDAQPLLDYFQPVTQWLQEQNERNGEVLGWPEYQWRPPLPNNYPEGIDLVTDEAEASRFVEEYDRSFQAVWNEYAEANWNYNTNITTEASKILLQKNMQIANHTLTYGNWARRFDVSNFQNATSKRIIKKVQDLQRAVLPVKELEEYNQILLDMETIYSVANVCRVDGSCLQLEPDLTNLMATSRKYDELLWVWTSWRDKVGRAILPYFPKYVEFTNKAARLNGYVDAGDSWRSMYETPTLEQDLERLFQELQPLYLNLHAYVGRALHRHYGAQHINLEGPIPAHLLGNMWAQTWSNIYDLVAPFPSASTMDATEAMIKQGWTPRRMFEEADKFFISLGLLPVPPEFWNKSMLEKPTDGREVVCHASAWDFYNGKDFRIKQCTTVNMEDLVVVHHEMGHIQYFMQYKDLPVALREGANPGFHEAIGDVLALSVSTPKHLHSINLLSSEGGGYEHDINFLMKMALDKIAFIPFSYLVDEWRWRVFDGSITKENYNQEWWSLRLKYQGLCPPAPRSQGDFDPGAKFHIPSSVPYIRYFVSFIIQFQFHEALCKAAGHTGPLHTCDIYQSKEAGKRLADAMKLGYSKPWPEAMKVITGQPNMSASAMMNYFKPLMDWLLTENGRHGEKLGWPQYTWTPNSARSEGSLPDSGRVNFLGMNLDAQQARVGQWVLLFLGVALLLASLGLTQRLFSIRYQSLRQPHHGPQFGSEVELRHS

Interstitial collagenase = molecular target: T2, Interstitial collagenase (Homo sapiens, UniProt P03956); assay type: tissue-based, Rheumatoid synovial fibroblasts;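 further: MMP-1 enzyme inhibition assay using a peptide substrate; in other assays of this panel Not Active means under 50% inhibition at 10 µM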
T2 sequence (P03956 whole entry): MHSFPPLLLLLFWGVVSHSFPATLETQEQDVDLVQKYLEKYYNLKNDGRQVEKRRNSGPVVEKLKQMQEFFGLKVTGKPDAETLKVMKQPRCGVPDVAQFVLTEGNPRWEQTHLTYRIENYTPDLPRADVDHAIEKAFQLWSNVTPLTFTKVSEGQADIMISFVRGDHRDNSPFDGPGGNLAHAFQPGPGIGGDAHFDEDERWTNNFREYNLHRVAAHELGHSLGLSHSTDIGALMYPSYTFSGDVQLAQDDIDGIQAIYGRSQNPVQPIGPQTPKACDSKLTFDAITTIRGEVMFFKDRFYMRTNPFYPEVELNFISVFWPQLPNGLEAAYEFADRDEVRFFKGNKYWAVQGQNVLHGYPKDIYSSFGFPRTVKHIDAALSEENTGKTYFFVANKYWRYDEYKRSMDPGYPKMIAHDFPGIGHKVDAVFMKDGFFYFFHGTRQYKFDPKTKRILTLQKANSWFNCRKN

[3] = molecular target: Mitogen-activated protein kinase 3 (Homo sapiens, UniProt P27361); assay: DRUGMATRIX: Protein Serine/Threonine Kinase, ERK1 enzyme inhibition (substrate: Myelin Basic Protein); design: species or system Escherichia coli; conditions: Not Active = under 50% inhibition at 10 µM
[4] = molecular target: Epidermal growth factor receptor (Homo sapiens, UniProt P00533); assay: DRUGMATRIX: Protein Tyrosine Kinase, EGF Receptor enzyme inhibition (substrate: Poly(Glu:Tyr)); assay type: cell-based, Insect cells; conditions: Not Active = under 50% inhibition at 10 µM
Glucocorticoid receptor = molecular target: T3, Glucocorticoid receptor (Homo sapiens, UniProt P04150); conditions: hela s3; further: in other assays of this panel Not Active means under 50% inhibition at 10 µM
T3 sequence (P04150 whole entry): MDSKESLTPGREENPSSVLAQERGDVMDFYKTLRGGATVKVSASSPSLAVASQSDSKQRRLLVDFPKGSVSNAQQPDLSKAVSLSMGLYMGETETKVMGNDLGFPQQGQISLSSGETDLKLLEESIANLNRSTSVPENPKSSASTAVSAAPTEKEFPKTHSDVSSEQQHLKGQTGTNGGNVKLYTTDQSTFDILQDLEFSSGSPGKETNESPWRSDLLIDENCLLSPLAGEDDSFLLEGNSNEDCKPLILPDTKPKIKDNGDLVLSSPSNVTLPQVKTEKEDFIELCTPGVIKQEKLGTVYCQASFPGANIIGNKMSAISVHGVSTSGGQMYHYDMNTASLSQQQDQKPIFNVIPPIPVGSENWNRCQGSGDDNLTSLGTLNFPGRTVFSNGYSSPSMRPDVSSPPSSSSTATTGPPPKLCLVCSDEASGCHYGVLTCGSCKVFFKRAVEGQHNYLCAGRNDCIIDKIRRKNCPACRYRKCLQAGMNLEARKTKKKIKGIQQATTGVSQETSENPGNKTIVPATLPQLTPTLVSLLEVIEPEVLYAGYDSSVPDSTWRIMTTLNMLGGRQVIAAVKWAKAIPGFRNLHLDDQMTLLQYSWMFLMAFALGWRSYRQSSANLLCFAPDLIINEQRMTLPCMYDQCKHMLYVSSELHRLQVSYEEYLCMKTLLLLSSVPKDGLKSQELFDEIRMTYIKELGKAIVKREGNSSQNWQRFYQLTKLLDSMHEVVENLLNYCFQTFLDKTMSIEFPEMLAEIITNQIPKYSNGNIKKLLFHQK

Mitogen-activated protein kinase 3, sequence (P27361 whole entry): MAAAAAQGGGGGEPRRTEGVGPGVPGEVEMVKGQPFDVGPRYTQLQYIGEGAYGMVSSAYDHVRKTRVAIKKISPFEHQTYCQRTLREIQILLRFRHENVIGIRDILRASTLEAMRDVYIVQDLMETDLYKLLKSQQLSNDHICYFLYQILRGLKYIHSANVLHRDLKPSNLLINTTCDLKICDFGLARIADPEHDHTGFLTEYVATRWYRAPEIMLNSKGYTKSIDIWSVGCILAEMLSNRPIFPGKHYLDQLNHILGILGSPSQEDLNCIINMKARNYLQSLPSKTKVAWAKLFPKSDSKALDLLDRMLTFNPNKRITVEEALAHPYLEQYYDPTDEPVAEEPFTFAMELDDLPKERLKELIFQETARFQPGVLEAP
Melanocortin receptor 3, sequence (P41968 whole entry): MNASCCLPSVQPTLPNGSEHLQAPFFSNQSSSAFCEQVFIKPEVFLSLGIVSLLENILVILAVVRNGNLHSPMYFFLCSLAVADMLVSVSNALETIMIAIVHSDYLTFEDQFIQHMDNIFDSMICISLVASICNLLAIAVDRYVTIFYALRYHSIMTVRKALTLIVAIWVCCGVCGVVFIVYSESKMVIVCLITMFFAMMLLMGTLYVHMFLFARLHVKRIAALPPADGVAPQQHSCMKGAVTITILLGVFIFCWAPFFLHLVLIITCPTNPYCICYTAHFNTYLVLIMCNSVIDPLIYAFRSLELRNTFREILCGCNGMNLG
Epidermal growth factor receptor, sequence (P00533 whole entry): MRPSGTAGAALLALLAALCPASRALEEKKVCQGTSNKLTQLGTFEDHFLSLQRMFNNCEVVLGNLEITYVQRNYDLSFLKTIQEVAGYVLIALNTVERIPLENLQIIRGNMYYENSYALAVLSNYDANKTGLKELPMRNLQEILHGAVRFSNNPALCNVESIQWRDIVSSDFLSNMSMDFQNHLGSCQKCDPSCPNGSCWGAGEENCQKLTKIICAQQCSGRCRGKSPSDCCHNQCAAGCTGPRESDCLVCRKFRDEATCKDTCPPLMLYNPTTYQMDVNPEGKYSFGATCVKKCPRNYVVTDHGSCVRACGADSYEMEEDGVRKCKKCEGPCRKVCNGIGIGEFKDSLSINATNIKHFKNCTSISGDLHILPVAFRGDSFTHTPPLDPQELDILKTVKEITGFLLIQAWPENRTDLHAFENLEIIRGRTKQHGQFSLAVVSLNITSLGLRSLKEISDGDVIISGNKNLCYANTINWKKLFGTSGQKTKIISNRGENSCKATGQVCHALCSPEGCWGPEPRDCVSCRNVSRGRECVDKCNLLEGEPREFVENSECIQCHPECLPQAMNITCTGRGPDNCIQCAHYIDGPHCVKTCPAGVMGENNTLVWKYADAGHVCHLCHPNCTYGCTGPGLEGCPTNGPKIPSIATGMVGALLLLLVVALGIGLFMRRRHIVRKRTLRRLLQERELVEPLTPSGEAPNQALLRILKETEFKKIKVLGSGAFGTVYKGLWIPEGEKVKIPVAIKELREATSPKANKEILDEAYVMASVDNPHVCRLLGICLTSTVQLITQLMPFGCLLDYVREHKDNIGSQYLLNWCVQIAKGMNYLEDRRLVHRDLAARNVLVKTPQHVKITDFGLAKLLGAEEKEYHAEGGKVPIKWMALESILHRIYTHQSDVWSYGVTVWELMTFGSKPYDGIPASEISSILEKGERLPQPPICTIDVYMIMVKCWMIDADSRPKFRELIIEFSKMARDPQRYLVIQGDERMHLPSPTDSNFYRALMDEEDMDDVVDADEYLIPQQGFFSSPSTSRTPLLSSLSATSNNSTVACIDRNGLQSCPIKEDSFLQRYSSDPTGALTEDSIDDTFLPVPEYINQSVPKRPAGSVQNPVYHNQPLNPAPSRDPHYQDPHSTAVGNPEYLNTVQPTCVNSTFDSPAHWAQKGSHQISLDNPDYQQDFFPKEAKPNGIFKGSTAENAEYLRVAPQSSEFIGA
Insulin receptor, sequence (P15127 27-759 limits assumed): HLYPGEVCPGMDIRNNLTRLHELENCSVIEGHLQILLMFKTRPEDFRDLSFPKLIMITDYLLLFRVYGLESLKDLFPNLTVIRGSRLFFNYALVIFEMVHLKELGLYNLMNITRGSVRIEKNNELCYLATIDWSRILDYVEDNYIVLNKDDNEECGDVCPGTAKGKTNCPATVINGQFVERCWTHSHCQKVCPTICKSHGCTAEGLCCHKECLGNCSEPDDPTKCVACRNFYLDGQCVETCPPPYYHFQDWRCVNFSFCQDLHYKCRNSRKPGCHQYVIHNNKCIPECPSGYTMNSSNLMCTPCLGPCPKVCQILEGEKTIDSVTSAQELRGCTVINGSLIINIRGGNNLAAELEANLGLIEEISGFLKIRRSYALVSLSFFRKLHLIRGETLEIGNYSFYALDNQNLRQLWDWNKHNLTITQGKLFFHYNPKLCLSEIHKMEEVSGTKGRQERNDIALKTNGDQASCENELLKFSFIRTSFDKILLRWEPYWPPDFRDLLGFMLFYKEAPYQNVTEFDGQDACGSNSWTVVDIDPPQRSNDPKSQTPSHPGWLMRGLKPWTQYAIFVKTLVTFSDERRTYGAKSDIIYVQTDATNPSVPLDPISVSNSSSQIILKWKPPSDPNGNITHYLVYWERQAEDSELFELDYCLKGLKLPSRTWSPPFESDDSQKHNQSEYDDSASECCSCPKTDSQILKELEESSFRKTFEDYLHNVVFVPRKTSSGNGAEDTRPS
Insulin receptor, sequence (P15127 764-1383 limits assumed): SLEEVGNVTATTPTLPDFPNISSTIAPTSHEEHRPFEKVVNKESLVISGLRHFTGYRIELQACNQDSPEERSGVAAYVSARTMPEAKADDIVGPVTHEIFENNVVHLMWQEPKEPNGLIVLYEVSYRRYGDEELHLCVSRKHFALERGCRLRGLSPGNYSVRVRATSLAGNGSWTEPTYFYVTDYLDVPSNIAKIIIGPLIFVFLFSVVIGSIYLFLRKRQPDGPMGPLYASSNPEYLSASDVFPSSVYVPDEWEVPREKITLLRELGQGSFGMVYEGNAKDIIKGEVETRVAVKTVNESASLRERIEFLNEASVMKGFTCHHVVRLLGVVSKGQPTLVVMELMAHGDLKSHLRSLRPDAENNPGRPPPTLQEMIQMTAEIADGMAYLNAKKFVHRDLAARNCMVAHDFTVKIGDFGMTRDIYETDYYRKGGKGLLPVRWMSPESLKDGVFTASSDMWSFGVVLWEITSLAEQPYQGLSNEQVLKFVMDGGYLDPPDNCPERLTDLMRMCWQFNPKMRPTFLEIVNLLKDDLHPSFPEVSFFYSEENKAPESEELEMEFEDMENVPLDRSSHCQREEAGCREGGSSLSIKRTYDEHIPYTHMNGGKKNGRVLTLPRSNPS
Beta-2 adrenergic receptor, sequence (P07550 whole entry): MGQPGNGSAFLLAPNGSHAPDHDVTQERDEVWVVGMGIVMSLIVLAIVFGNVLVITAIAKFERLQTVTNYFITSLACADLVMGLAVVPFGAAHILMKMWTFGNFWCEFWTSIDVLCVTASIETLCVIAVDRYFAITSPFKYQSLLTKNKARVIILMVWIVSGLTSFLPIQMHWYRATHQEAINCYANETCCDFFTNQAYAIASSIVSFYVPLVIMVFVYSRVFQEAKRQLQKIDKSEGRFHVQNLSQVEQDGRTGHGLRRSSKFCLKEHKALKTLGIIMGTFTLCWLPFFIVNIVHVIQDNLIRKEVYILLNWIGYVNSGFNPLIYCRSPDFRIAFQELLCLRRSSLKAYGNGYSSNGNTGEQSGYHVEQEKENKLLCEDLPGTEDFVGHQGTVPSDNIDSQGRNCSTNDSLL

Structure (SMILES)	IC50 [1]	IC50 (Insulin receptor)	IC50 (Melanocortin receptor 3)	IC50 [2]	IC50 (Interstitial collagenase)	IC50 [3]	IC50 ([4]; insect cells)	IC50 (Glucocorticoid receptor)	IC50 ([4]; read-out: IC50)
COC(=O)[C@H](c1ccccc1Cl)N1CCc2sccc2C1 [CLOPIDOGREL]	Not Active	Not Active	Not Active	Not Active	Not Active	Not Active	Not Active	Not Active	
c1ccc2c(c1)cc1ccc3cccc4ccc2c1c34	Not Active	Not Active	Not Active	Not Active	Not Active	Not Active	Not Active	Not Active	
CCOC(=O)c1ccc(N)cc1 [BENZOCAINE]	Not Active	Not Active	Not Active	Not Active	Not Active	Not Active	Not Active	Not Active	
COc1ccc2cc(CC(=O)O)ccc2c1	Not Active	Not Active	Not Active	Not Active	Not Active	Not Active	Not Active	Not Active	
O=C1CN=C(c2ccccc2)c2cc([N+](=O)[O-])ccc2N1 [NITRAZEPAM]	Not Active	Not Active	Not Active	Not Active	Not Active	Not Active	Not Active	Not Active	
CC1=Nc2ccc(Cl)cc2S(=O)(=O)N1 [DIAZOXIDE]	Not Active	Not Active	Not Active	Not Active	Not Active	Not Active	Not Active	Not Active	
CC(C)(S)[C@@H](N)C(=O)O [PENICILLAMINE]	Not Active	Not Active	Not Active	Not Active	Not Active	Not Active	Not Active	Not Active	
CC(=O)CCCCn1c(=O)c2c(ncn2C)n(C)c1=O [PENTOXIFYLLINE]	Not Active	Not Active	Not Active	Not Active	Not Active	Not Active	Not Active	Not Active	
Nc1nc(=O)[nH]cc1F [FLUCYTOSINE]	Not Active	Not Active	Not Active	Not Active	Not Active	Not Active	Not Active	Not Active	
CCC1(c2ccccc2)C(=O)NCNC1=O [PRIMIDONE]	Not Active	Not Active	Not Active	Not Active	Not Active	Not Active	Not Active	Not Active	
CCCCOC(=O)c1ccc(N)cc1 [BUTAMBEN]	Not Active	Not Active	Not Active	Not Active	Not Active	Not Active	Not Active	Not Active	
C=C1[C@@H]2CCC3[C@@](CC[C@@H]4[C@H](C(=O)O)C[C@@H](O[C@@H]5O[C@H](CO)[C@@H](OS(=O)(=O)[O-])[C@H](OS(=O)(=O)[O-])[C@H]5OC(=O)CC(C)C)C[C@@]34C)(C2)[C@@H]1O.[K+].[K+] (stereo partly drawn) [ATRACTYLOSIDE]	Not Active	Not Active	Not Active	Not Active	Not Active	Not Active	Not Active	Not Active	
Cn1cnc([N+](=O)[O-])c1Sc1ncnc2nc[nH]c12 [AZATHIOPRINE]	Not Active	Not Active	Not Active	Not Active	Not Active	Not Active	Not Active	Not Active	
CC(C)n1c(/C=C/C(O)CC(O)CC(=O)O)c(-c2ccc(F)cc2)c2ccccc21 (stereo not drawn) [FLUVASTATIN]	Not Active	Not Active	Not Active	Not Active	Not Active	Not Active	Not Active	Not Active	
Oc1c(Cl)cc(Cl)cc1Sc1cc(Cl)cc(Cl)c1O [BITHIONOL]	Not Active	Not Active	Not Active	Not Active	Not Active	Not Active		Not Active	614 nM
Cc1c(-c2ccccc2)oc2c(C(=O)OCCN3CCCCC3)cccc2c1=O [FLAVOXATE]	Not Active	Not Active	Not Active	Not Active	Not Active	Not Active	Not Active	Not Active	
